Values quoted from earlier work as cited in patent publication US20080167477A1, “NOVEL POLYMORPHIC FORMS OF […] AND PROCESS FOR PREPARING THE SAME” (MATRIX LABORATORIES LIMITED, priority 2007, published 2008).

Conditions: compared to the free base of carvedilol; disclosed in WO 2004/002419

Which solubility does the source give for `COc1ccccc1OCCNCC(O)COc1cccc2[nH]c3ccccc3c12.O=P(O)(O)O` (stereo not shown) [carvedilol dihydrogen phosphate] here?
Its solubility is “higher solubility when compared to the free base of carvedilol”.
